Experimental data as given in patent EP2433624B1, “Use of buparvaquone for controlling mites parasitising honeybees” (Bimeda International Pharmaceuticals Limited, priority 2010, dated 2012).
Several values for one entry are separate records, joined by “and”; a condition that tells them apart may be missing. Identical values can stand only once. Like-named read-outs stand apart in the source and are kept apart here.

Columns and labels:
[1] = test system: Varroa mites; assay: Efficacy of BPQ B against Varroa mites on honeybees sprayed with an aqueous solution; assay type: in vivo; settings: sprayed as an aqueous solution, preliminary
Procedure: (§1) Example 7 - Toxicity of BPQ B to Varroa mites on honeybees when sprayed with an aqueous solution of the active ingredient
To estimate the percentage efficacy of BPQ B at different concentrations when sprayed as an aqueous solution onto adult bees
(§2) A total of 20 newly emerged Varroa infested bees were placed in hoarding cages. The cages were prepared as described in Section 1.0, except that the air vents were reduced in size using parafilm to prevent the Varroa mites escaping during the test period. The mean(±se) number of mites per 20 bees was estimated prior to commencement and an additional 10 mites per cage were added. Mites were collected and introduced as described above. The treatment solution was made by dissolving BPQ B in solvent, followed by two aqueous serial dilutions producing a concentration of 500µg/mL and 5µg/mL. From the latter, further serial dilutions were carried in water producing the following concentrations: • 0.5µg/mL. (C1-C3) • 0.05µg/mL. (D1-D3) • 0.005µg/mL. (E1-E3) • 0.0005µg/mL. (F1-F3) • 0.00005µg/mL (G1-G3)
(§3) Three replicates were established at each concentration plus a control group which were sprayed with water only. All test groups were fed 10mL of 1:1 sucrose:water solution and placed in the incubator at 32°C and monitored on a daily basis for the number of mites and number of bees knocked down. At the end of five day treatment period, the percentage efficacy of the treatment was estimated by treating bees in all cages with Apistan. % efficacy = mites knocked from treatment/total mites (treatment+Apistan)*100 [formula]

[2] = test system: Varroa mites; assay: Efficacy of BPQ B against Varroa mites on honeybees fed treated sucrose solution; assay type: in vivo
Procedure: (§4) Example 6 - Toxicity of BPQ B to Varroa mites on honeybees when fed treated sucrose solution
To estimate the percentage efficacy of BPQ at different concentrations in sucrose solution
(§5) A total of 20 newly emerged Varroa infested bees were placed in hoarding cages. The cages were prepared as described in Section 1.0, except that the air vents were reduced in size using parafilm to prevent the Varroa mites escaping during the test period. The mean(±se) number of mites per 20 bees was estimated prior to commencement of the experiment and an additional 5 mites per cage were added. (mean±se = 10.6±0.33). This was carried out by collecting adult female mite from drone pupae, placing them in an eppendorf tube and then releasing them into the cages.
(§6) The treatment solution was made by dissolving BPQ B in solvent, followed by two aqueous serial dilutions producing a concentration of 500µg/mL and 5 µg/mL. From the latter, further serial dilutions were carried with sucrose solution producing the following concentrations: • 0.5µg/mL. (C1-C3) • 0.05µg/mL. (D1-D3) • 0.005µg/mL. (E1-E3) • 0.0005µg/mL. (F1-F3) • 0.00005µg/mL (G1-G3)
as §3, with “only fed sugar syrup.” for “sprayed with water only.”, “cages” for “test groups”, “were” for “were fed 10mL of 1:1 sucrose:water solution and”, “Apistan (Trade Mark of Vita (Europe) Ltd. Apistan contains fluvalinate which is a synthetic pyrethroid.” for “Apistan.”

[3] = test system: honeybee larvae; assay: Toxicity of BPQ B to honeybee larvae when fed treated syrup; assay type: in vivo, Apis mellifera; settings: for Sealed cells / Young bees emerged: 40 cells
Source text: (§7) To measure the effect of treatment on developing larvae when fed syrup treated with BPQ powder, BPQ B, dissolved in the solvent (N-methyl pyrollidone) and diluted in an aqueous solution.
(§8) Apidae boxes were used to raise young queens and when virgin queens started to lay an area 6cm x 3cm were marked and missing cells were noted. The miniature colony was fed treated syrup, which was made by dissolving BPQ B powder in solvent, followed by serial dilutions using a sucrose solution (2 parts sugar: 1 part water). The concentrations administered are given below. Two replicates were carried out for the product, while 1 colony (apidae) was used for each of the solvent concentrations.

[4] = as above; assay type: in vivo, Apis mellifera; settings: honeybee, in vivo, po, read-out: % Emergence
Source text: as §7, §8

[5] = test system: honeybees; assay: Bee survival in the test with BPQ B fed in sucrose solution; assay type: in vivo, Apis mellifera
Procedure: as §4, §5, §6
Three replicates were established at each concentration plus a control group which were only fed sugar syrup. All cages were placed in the incubator at 32°C and monitored on a daily basis for the number of mites and number of bees knocked down. […]

[6] = test system: honeybees; assay: Survival of bees sprayed with aqueous solutions of BPQ; assay type: in vivo, Apis mellifera; settings: sprayed as an aqueous solution
Procedure: as §1, §2, §3

[7] = 0.00005µg/mL (g1-g3) in sucrose solution fed to 20 infested bees per cage
[8] = 0.00005µg/mL (g1) in sucrose fed to colony
[9] = 0.0005µg/mL (f1-f2) in sucrose fed to colony
[10] = 0.005µg/mL (e1-e2) in sucrose fed to colony
[11] = 0.05µg/mL (d1-d2) in sucrose fed to colony
[12] = 0.5µg/mL (c1-c2) in sucrose fed to colony

CC(C)(C)[C@H]1CC[C@H](CC2=C(O)C(=O)c3ccccc3C2=O)CC1 [BPQ B, buparvaquone]
mean minimum efficacy ([1]; treatment d (0.05µg/mL)): 28.4% | mean maximum efficacy ([1]; treatment g (0.00005µg/mL)): 46.2% | percentage efficacy against the Varroa mite [1]: low | daily Varroa mite drop down, Day 4 [2, 7]: 0 | daily Varroa mite drop down, Day 6 [2, 7]: 0 | daily Varroa mite drop down, Day 2 ([2]; 0.0005µg/mL (f1-f3) in sucrose solution fed to 20 infested bees per cage): 7 and 9 | effective in Varroa knockdown ([2]; 0.0005µg/mL, fed in sugar solution): > 80% | daily Varroa mite drop down, Day 5 ([2]; 0.05µg/mL (d1-d3) in sucrose solution fed to 20 infested bees per cage): 1 | daily Varroa mite drop down, Day 6 ([2]; 0.5µg/mL (c1-c3) in sucrose solution fed to 20 infested bees per cage): 1 and 2 | maximum efficacy ([2]; fed in a sucrose solution, treatment f (0.0005µg/mL), 5 day treatment): approximately 82% | minimum efficacy ([2]; fed in a sucrose solution, treatment g (0.00005µg/mL), 5 day treatment): 43.8% | Sealed cells [3, 8]: 30 | Young bees emerged [3, 8]: 30 | % Emergence [3, 9]: 87.5% | Sealed cells [3, 9]: 32 and 30 | Young bees emerged [3, 9]: 26 and 28 | % Emergence [3, 10]: 86.5% | Sealed cells [3, 10]: 31 and 37 | Young bees emerged [3, 10]: 28 and 32 | % Emergence [3, 11]: 69.7% | Sealed cells [3, 11]: 30 and 29 | Young bees emerged [3, 11]: 27 and 23 | % Emergence [3, 12]: 93.9% | Sealed cells [3, 12]: 32 and 33 | Young bees emerged [3, 12]: 30 and 31 | toxicity for bee larvae ([3]; powder dissolved in NMP, diluted in water then sugar solution, any concentration): No toxicity | survival [4, 8]: 96.8% | survival [4, 9]: 70.3% | survival [4, 10]: 82.4% | survival [4, 11]: 81.8% | survival [4, 12]: 85.7% | bee survival ([5]; fed in a sucrose solution, day 5): no negative effects | toxicity for bees ([5]; powder dissolved in NMP, diluted in water then sugar solution, tested over 5 days, any concentration): No toxicity | toxicity to bees [6]: very low
